The subject of data set [1] is mouse fibrosarcoma (R3) cells. Briefly: Experimental metastasis of R3 cells treated ex vivo, lung nodules in C3H mice (4.1). The following applies: for Formation of lung colonies / nodules: R3 cells treated with 0.2 μM + Lipofectin for 4 hr before i.v. injection into C3H mice. The procedure:
• 4.1 Experimental metastasis of mouse fibrosarcoma (R3) cells treated with different antisense oligonucleotides in a syngenetic model was estimated as follows. Aliquots of R3 cell suspension were seeded into 100 mm tissue culture dishes at a density of 2×10^6 and incubated overnight at 37° C. in α-MEM medium supplemented with 10% FBS. Cells were washed once in 10 ml of PBS and treated with 0.2 μM of SEQ ID NO: 1 in the presence of cationic lipid (Lipofectin reagent, final concentration, 10 μg/ml, Gibco BRL) for 4 hr. Cells were treated with either saline alone (C) or lipofectin alone (RE) as controls. Oligonucleotide was removed by washing the cells once with PBS and the cells were trypsinized. Cells were then collected by centrifugation, and approximately 1×10^5 cells suspended in 0.2 ml of PBS were injected into the tail veins of 10 week-old C3H female mice. Estimates of the number of lung tumours were made 20 days later, after excised lungs from individual mice were stained with picric acid dye solution (75% picric acid, 20% formaldehyde, 5% glacial acetic acid). Bars represent mean number of tumour nodules in lungs obtained from 4 to 5 animals per experimental group. […] Aliquots of C8161 cell suspension were seeded into 100 mm tissue culture dishes at a density of 2×10^6 and incubated overnight at 37° C. in α-MEM medium supplemented with 10% FBS. Cells were washed once in 10 ml of PBS and treated with 0.2 μM of SEQ ID NO: 1 in the presence of cationic lipid (Lipofectin reagent, final concentration, 10 μg/ml, Gibco BRL) for 4 hr. Cells were treated with lipofectin alone (CONTROL) as a control. SEQ ID NO:1 was removed by washing the cells once with PBS and the cells were trypsinized. Cells were then collected by centrifugation, and approximately 1×10^5 cells suspended in 0.2 ml of PBS were injected into the tail veins of 6-8 week-old CD-1 athymic female nude mice. Estimates of the number of lung tumours were made 4 weeks later, after excised lungs from individual mice were stained with picric acid dye solution (75% picric acid, 20% formaldehyde, 5% glacial acetic acid). […]

Data set [2] can be described thus: 21-day continuous infusion toxicity study in the monkey with a 3-week recovery. In kind it is in vivo. The procedure:
A second repeat-dose study was conducted in monkeys to evaluate the toxicity associated with administration of test article by continuous intravenous infusion for 21 days followed by a 21-day recovery period. Twenty-eight monkeys were administered one of the following dose levels; vehicle control, 2 mg/kg/day, 10 mg/kg/day, or 50 mg/kg/day. Toxicokinetic samples were collected prior to the initiation of infusion, approximately 8, 24, 48, and 96 hours following the start of infusion, and on Day 20 prior to the change in dose-syringes. […] As in the previous rat study, the 2 mg/kg/day dose level was identified as the no-adverse-effect-level (NOAEL).

Data set [3] deals with Hela S3 human cervix epitheloid carcinoma cells. The data set is described as follows: Hela S3 hydroxyurea resistant cervix carcinoma xenograft in SCID mice. In kind it is in vivo, human cells in mice. The procedure:
BxPC-3 is a gemcitabine resistant call line. […] Gemcitabine was administered intravenously every three days at a dose of 100 mg/kg. Antitumour activities were estimated by the inhibition of tumour volume, which was measured with caliper. Each point represents mean tumour volume calculated from 10 animals per experimental group. […] Hela S3 is a hydroxyurea resistant cell line. […] Hydroxyurea was administered intraperitoneally every day at a dose of 250 mg/kg for 10 days. Cisplatin was administered intravenously once a week for three weeks at a dose of 4 mg/kg. Antitumour activities were estimated by the inhibition of tumour volume, which was measured with caliper. Each point represents mean tumour volume calculated from 10 animals per experimental group. […] Cisplatin was administered intravenously once a week for three weeks at a dose of 4 mg/kg. Taxol was administered intravenously once a week for three weeks at a dose of 10 mg/kg. Antitumour activities were estimated by the inhibition of tumour volume, which was measured with caliper. Each point represents mean tumour volume calculated from 10 animals per experimental group. […] Taxol was administered i.p. once a week at a dose of 10 mg/kg. Antitumour activities were estimated by the inhibition of tumour volume (FIG. 12A), which was measured with calipers. Each point represents mean tumour volume calculated from 10 animals per experimental group. Animals were sacrificed and tumour weights taken at the end of the study (FIG. 12C). […] The effects of combined treatment were greater than either treatment alone. […] Cisplatin was administered intravenously once a week for four weeks at a dose of 4 mg/kg. Taxol was administered intravenously once a week for four weeks at a dose of 20 mg/kg. Antitumour activities were estimated by the inhibition of tumour volume, which was measured with caliper. Each point represents mean tumour volume calculated from 9-10 animals per experimental group. […] Cisplatin was administered intravenously once a week for four weeks at a dose of 4 mg/kg. Antitumour activities were estimated by the inhibition of tumour volume, which was measured with caliper. Each point represents mean tumour volume calculated from 10 animals per experimental group. At the end of the study the animals were sacrificed and tumours weighed. […] Taxol was administered i.p. once a week at a dose of 10 mg/kg. Anti-tumour activity was estimated by the inhibition of tumour volume, which was measured with caliper. Each point represents mean tumour volume calculated from 10 animals per experimental group. In addition animals were sacrificed and tumour weights taken at the end of the study. […] CPT-11 was administered i.p. for 5 days at a dose of 20 mg/kg/day. Antitumour activities were estimated by the inhibition of tumour volume, which was measured with caliper. Each point represents mean tumour volume calculated from 10 animals per experimental group. Tumour weights were measured after animals were sacrificed at the end of the treatment. These cells are not resistant to CPT-11 which was used as a positive control.

Where [4] appears, read: continuous i.v. infusion 21 days.

Entries after “also recorded” stand apart in the source; their conditions may differ.

As to “5′-GGCTAAATCGCTCCACCAAG-3′ (all phosphorothioate, sugars by position and methylation of C not given here) [SEQ ID NO: 1, fully phosphorothioated antisense oligonucleotide that hybridizes to the coding region of R2 mRNA]”, the “Decrease in the number of tumour metastases to lungs” value in data set [1] (Mouse Fibrosarcoma (ex vivo)) is recorded as “Decrease by approximately 65% in the number”. Moreover, in data set [1], the “Formation of lung colonies / nodules” value is “significantly reduced the formation of lung colonies”. Moreover, the “Formation of lung colonies / nodules” value in data set [1] (listed as SEQ ID NO:1) is “significantly reduces the extent of lung nodule formation”. For the same substance, the Deaths entry in data set [2] (2, 10 or 50 mg/kg/day continuous i.v. infusion 21 days) is “No unplanned deaths”. In data set [2] (3-week post-dosing treatment-free period), the Reversibility of changes result is recorded as “reversed either completely or partially”. Also, in data set [2] (10 and 50 mg/kg/day continuous i.v. infusion 21 days), the Toxicity findings entry was “splenic histiocytosis, anticoagulant effects, complement activation, and continuous infusion effects”. Besides, in data set [2] (setting [4]), the “Target organs (histopathologic changes)” value is “kidneys, liver, and lymph nodes”; the “no-adverse-effect-level (NOAEL)” value is given as 2 mg/kg/day. For the same substance, the “Tumour weight as % of saline control” value in data set [3] (Hela S3 (cervix), hydroxyurea resistant, SCID, SEQ ID NO:1 10 mg/kg i.v. every other day 6 times, Hydroxyurea 250 mg/kg i.p. daily 10 days, Cisplatin 4 mg/kg i.v. weekly x3) worked out at 24%. In addition, the “Antitumour effect (tumour volume, FIG. 10)” value in data set [3] (Hela S3 hydroxyurea resistant, SCID mice, SEQ ID NO:1 10 mg/kg i.v. every other day, Hydroxyurea 250 mg/kg i.p. daily, Cisplatin 4 mg/kg i.v. weekly) is recorded as “significant delay of tumour growth compared to saline control; also recorded: superior to the inhibitory effects observed with Cisplatin alone”.

These data come from patent US7968526B2, “Antisense oligonucleotides directed to ribonucleotide reductase R2 and uses thereof in the treatment of cancer” (Lorus Therapeutics Inc., priority 2003, dated 2011).
